We go through 16 compounds from patent US9539259B2, “Compounds and methods of use thereof for treating neurodegenerative disorders” (THE JOHNS HOPKINS UNIVERSITY, priority 2012, dated 2017).

Like-named read-outs stand apart in the source and are kept apart here.

Series [1] has as its target T1, DLK (Homo sapiens, UniProt Q12852).
T1 sequence (Q12852 1-859): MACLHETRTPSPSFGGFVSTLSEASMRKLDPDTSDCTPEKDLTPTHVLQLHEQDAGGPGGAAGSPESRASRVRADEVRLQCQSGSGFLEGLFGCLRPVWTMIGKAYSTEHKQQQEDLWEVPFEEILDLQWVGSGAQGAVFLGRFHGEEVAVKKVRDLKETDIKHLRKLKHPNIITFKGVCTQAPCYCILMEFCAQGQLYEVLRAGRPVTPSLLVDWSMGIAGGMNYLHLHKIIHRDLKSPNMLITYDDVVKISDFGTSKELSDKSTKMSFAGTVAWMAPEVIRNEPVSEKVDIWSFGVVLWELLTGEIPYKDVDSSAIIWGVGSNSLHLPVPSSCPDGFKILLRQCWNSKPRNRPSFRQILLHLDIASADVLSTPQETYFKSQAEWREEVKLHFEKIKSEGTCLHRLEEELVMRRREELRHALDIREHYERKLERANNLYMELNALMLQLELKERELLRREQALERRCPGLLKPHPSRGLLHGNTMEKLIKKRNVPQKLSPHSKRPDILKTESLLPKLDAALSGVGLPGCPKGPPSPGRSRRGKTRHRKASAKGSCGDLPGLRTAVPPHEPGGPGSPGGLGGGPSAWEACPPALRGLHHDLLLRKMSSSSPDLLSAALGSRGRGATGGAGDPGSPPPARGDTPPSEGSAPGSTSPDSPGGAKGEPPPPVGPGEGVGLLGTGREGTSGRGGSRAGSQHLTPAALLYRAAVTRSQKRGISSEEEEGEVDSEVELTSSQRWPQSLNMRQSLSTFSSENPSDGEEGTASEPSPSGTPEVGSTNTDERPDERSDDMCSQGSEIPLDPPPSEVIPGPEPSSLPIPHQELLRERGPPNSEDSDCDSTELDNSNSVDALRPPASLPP
The note with it: published kinase inhibitor profiles; cited from earlier work.

Series [2] concerns primary RGCs. Kind of series: Survival of immunopanned primary RGCs in culture. To be noted: for RGC survival / neuroprotective activity in culture: immunopanned RGCs, increasing doses, 72 hours in culture; for neuroprotective activity, RGC survival by CellTiter-Glo luminescence: murine purified RGCs, neurotrophin-depleted media, 72 hours, sunitinib as positive control. How it is done:
All animal use was in accordance with ARVO Statement for the Use of Animals, and all the experimental procedures were performed in compliance with animal protocols approved by the IACUC at Johns Hopkins University. Retinas were isolated from postnatal 0-5 day mice and dissociated with papain. Microglia was immunodepleted with anti-CD11b conjugated Dynabeads. The suspension of retinal cells were immunopanned on plates pre-conjugated with anti-Thy1.2 antibody (Serotec, Raleigh, N.C.; MCA028) and goat anti-mouse IgM (Jackson Immunoresearch) at room temperature (RT). After washing, RGCs were released from the plate by a cell lifter, counted, and seeded at a density of 10,000 per well in 96-well plates in the media composed of Neurobasal, B27, N2 supplement, L-glutamine, and penicillin/streptomycin. After a 72 hour culture at 37° C., RGCs were stained with calcein AM, ethidium homodimer, and Hoechst 33342. Images were taken from portions of each well with Cellomics Kinetscan or Cellomics ArrayScan VTI HCS Readers (Thermo Fisher), and cell survival was quantified and calculated with the algorithms in Cellomics Neuroprofiling package. As indicated, RGC viability was alternatively measured by CellTiter-Glo luminescence (Promega, Fitchburg, Wis.).
For siRNA-based screening, the siRNAs from the Sigma Mission Mouse Kinome library were complexed with NeuroMag (Oz Biosciences, Marseille, France) at a final concentration of 20 nM. RGCs were then reverse transfected on a stationary magnet and assayed for survival 72 hours later using CellTiter-Glo (Promega). […] Confirmatory siRNAs were obtained from both Dharmacon (Lafayette, Colo.) and Ambion (Carlsbad, Calif.). Adenovirus expressing wildtype or kinase-dead DLK (Robitaille et al., 2004) was added to RGCs at a multiplicity of infection of 100-1000. For small molecule-based screening, serially diluted compounds in DMSO were transferred to 1536 well assay plates by a 23 nL pintool array (Kalypsys, San Diego, Calif.), with a final concentration of 0.057% DMSO for each respective compound concentration. RGCs were cultured for 48 h, and cell viability was analyzed on a plate reader (ViewLux, Perkin Elmer, Waltham, Mass.) using the bioluminescent CellTiterGlo (Promega, Fitchburg, Wis.) assay. Concentration response curves were created using CurveFit (NIH NCATS). The screened libraries include the modified Tocriscreen (1395 compounds) collection, FDA-approved drugs (2814 compounds), LOPAC (1208 compounds) and PTL2/PTL3 (based on pteridin, pyrimidine and quinazoline scaffolds; 2319 compounds).
In order to identify novel neuroprotective agents, a high-content, high-throughput, phenotypic screen was developed using primary RGCs. RGCs were immunopanned from perinatal mice using an antibody against the RGC surface antigen Thy1 (Barres et al., 1988), arrayed into microtiter (96- to 1536-well) plates, and cell survival in the presence of various bioactive small molecules was assayed 72 hours later.
In general terms: ATP-based viability assays read luminescence as a measure of living cells.

Series [3] has as its system RGCs. The series is described as follows: Rat optic nerve transection, RGC survival. The class given is in vivo, Wistar rats.
Series [4] deals with optic nerve axons. The series is described as follows: Rat laser-induced ocular hypertension (glaucoma model), optic nerve axon counts. The note with it: for reduction of optic nerve axon loss: intravitreal drug-eluting PLGA microspheres, pretreatment, at one month.
Procedure: 6-week old male Wistar rats were anesthetized with ketamine/xylazine. A partial periotomy was made to expose the sclera. The injection site was approximately 1 mm posterior to the ora serrata, and the injection glass pipet was angled towards the optic disc in order to avoid lens injury. 5 μL (10 μg) of PLGA microspheres were injected with a glass pipet and Hamilton syringe.
Intraocular pressure (TOP) was unilaterally elevated by laser treatment of the trabecular meshwork as previously described (Levkovitch-Verbin, H. et al., 2002). Briefly, 6-week old Wistar male rats were anesthetized with ketamine/xylazine. On two consecutive weeks, 40-50 532 nm diode laser spots were applied to the prelimbal region (50 μm diameter, 600 mW power and 0.6 seconds duration). Under anesthesia, the IOP of laser-treated and fellow eyes was measured with TonoLab one and three days after laser treatment. Four weeks following laser treatment, rats were perfused with 4% paraformaldehyde in phosphate buffer. Optic nerves were isolated, postfixed with 1% osmium tetroxide, embedded in epoxy resin and stained with 1% toluidine blue. Images from 10 random and nonoverlapping fields were taken with 100× oil phase contrast objective. The area of entire optic nerve cross-sections were imaged with 10× magnification, and used with axon counts from the 10 field to derive axon counts per nerve. The laser treatment and acquisition of optic nerve images were performed in a masked fashion.
Sunitinib, or its vehicle control, were packaged in poly(lactic-co-glycolic acid) (PLGA)-based, slow-eluting microspheres (Edwards, 1997) and injected intravitreally into Wistar rats.
Series [5] concerns DLK signaling (phosphorylation of MKK7 and JNK). The series is described as follows: Western blot of DLK pathway members in RGCs. The series is classed as cell-based, mouse. The note with it: RGCs 4 hours after immunopanning, concentrations that increase RGC survival. The protocol:
(§1) The shaded area indicates the toxic range for tozasertib; (B) Western blot of the DLK pathway members in RGCs 4 hours after immunopanning in the presence of 0, 0.03, 0.06, 0.125, 0.25, 0.5, 1 or 2 μM tozasertib; (C) survival of cultured RGCs 72 hours after transfection with DLK (dashed) or nontargeting siRNA (solid) in the presence of increasing doses of tozasertib; and (D) survival of cultured RGCs 48 hours after transduction with DLK expressing adenovirus in the presence of increasing doses of tozasertib. Error bars show standard deviation; and
Western blots were performed according to the standard protocol. The following antibodies were from Cell Signaling Technology (Beverly, Mass.): Phospho-JNK, Thr183/Tyr185 (4671); JNK (9258); Phospho-MKK7 (4171), and MKK7 (4172). Monoclonal anti-alpha-tubulin antibody (T6074) was purchased from Sigma (St. Louis, Mo.), βIII tubulin (TUJ1) from Covance, goat polyclonal Brn3 from C-13, and rabbit anti-Cre from Novus. DLK rabbit polyclonal was provided by S. Hirai.
A general note: A western blot detects proteins with antibodies after separation by electrophoresis.

The subject of series [6] is RGCs overexpressing DLK. The series is described as follows: Survival of RGCs transduced with DLK-expressing adenovirus in the presence of inhibitor. The series is classed as cell-based, mouse. How it is done: as §1
(§2) Concentration response curves were created using CurveFit (NIH NCATS).

The subject of series [7] is MKK4/7. The note with it: published kinase inhibitor profiling; cited from earlier work.
The subject of series [8] is JNK1/2/3. To be noted: published kinase inhibitor profiling; cited from earlier work.
Series [9] has as its system DLK siRNA-transfected RGCs. Kind of series: Survival of RGCs transfected with DLK or control siRNA in the presence of inhibitor. The class given is cell-based, mouse. To be noted: 72 hours after transfection, increasing doses. The protocol:
as §1, §2

For `O=C(c1ccc(/C=C/c2n[nH]c3ccccc23)cc1)N1CCNCC1` [KW-2449], the “binding to DLK” value in series [1] is reported as “reported to bind DLK”. Besides, in [2], the “RGC survival / neuroprotective activity in culture” value was “promoted the survival of primary RGCs in culture” and the “neuroprotective activity, RGC survival by CellTiter-Glo luminescence” value (shortened to “neuroprotective activity, RGC survival”) was “neuroprotective activity”.
Turning to `CN(C)S(=O)(=O)c1ccc2c(c1)/C(=C/c1cc3c([nH]1)CCCC3)C(=O)N2` [SU6656], the “RGC survival / neuroprotective activity in culture” value in series [2] was “neuroprotective”.
Take `COc1cc(N2CCC(N3CCN(C)CC3)CC2)ccc1Nc1ncc(Cl)c(Nc2ccccc2S(=O)(=O)C(C)C)n1` [TAE-684]: in series [1], the “binding to DLK” value is “reported to bind DLK”. In series [2], the “toxicity in RGC culture” value was “limited by toxicity at nanomolar doses”.
On to `CNC(=O)c1ccccc1Sc1ccc2c(/C=C/c3ccccn3)n[nH]c2c1` [axitinib], for which, in series [1], the “binding to DLK” value is reported as “reported to bind DLK”. Besides, in series [2], the “RGC survival / neuroprotective activity in culture” value is listed as “promoted the survival of primary RGCs in culture” and the “neuroprotective activity, RGC survival” value is “neuroprotective activity”.
As to `COc1cc(Nc2c(C#N)cnc3cc(OCCCN4CCN(C)CC4)c(OC)cc23)c(Cl)cc1Cl` [bosutinib], the “binding to DLK” value in series [1] is recorded as “reported to bind DLK”. In addition, in series [2], the “RGC survival / neuroprotective activity in culture” value is listed as “promoted the survival of primary RGCs in culture” and the “neuroprotective activity, RGC survival” value is “neuroprotective activity”.
Take `COc1cc2nccc(Oc3ccc(NC(=O)C4(C(=O)Nc5ccc(F)cc5)CC4)cc3)c2cc1OC` [cabozantinib]: the “neuroprotective activity, RGC survival” value in series [2] was “neuroprotective activity”.
With `C[C@@H](Oc1cc(-c2cnn(C3CCNCC3)c2)cnc1N)c1c(Cl)ccc(F)c1Cl` [crizotinib], the “binding to DLK” value in [1] is reported as “reported to bind DLK”. Further, in series [2], the “RGC survival / neuroprotective activity in culture” value was “promoted the survival of primary RGCs in culture” and the “neuroprotective activity, RGC survival” value was “neuroprotective activity”.
Take `Cc1nc(Nc2ncc(C(=O)Nc3c(C)cccc3Cl)s2)cc(N2CCN(CCO)CC2)n1` [dasatinib]: the “neuroprotective activity, RGC survival” value in series [2] was “neuroprotective activity”.
Turning to `COc1cc2c(Oc3ccc(NC(=O)C4(C(=O)Nc5ccc(F)cc5)CC4)cc3F)ccnc2cc1OCCCN1CCOCC1` [foretinib], the “binding to DLK” value in [1] is recorded as “reported to bind DLK”. Further, in series [2], the “RGC survival / neuroprotective activity in culture” value was “promoted the survival of primary RGCs in culture” and the “neuroprotective activity, RGC survival” value was “neuroprotective activity”.
For `Cc1ccc(NC(=O)c2ccc(CN3CCN(C)CC3)cc2)cc1Nc1nccc(-c2cccnc2)n1` [imatinib], in series [2], the “RGC survival / neuroprotective activity in culture” value is reported as “lack neuroprotective activity”.
Still for that read-out and setting: under `C[C@]12O[C@H](C[C@]1(O)CO)n1c3ccccc3c3c4c(c5c6ccccc6n2c5c31)CNC4=O` [lestautinib, lestaurtinib] stands “promoted the survival of primary RGCs in culture”.
Turning to `CCOc1cc2ncc(C#N)c(Nc3ccc(OCc4ccccn4)c(Cl)c3)c2cc1NC(=O)/C=C/CN(C)C` [neratinib], the “binding to DLK” value in [1] is given as “reported to bind DLK”. For the same compound, in series [2], the “toxicity in RGC culture” value is given as “limited by toxicity at nanomolar doses”.
In the case of `CNC(=O)c1cc(Oc2ccc(NC(=O)Nc3ccc(Cl)c(C(F)(F)F)c3)cc2)ccn1` [sorafenib], in [2], the “RGC survival / neuroprotective activity in culture” value is “lack neuroprotective activity”.
With `CCN(CC)CCNC(=O)c1c(C)[nH]c(/C=C2\C(=O)Nc3ccc(F)cc32)c1C` [sunitinib], the “increase in surviving RGCs compared to control animals” value in series [3] (intravitreal PLGA microspheres 7 days before transection, two weeks post-transection) is reported as 3-4 fold. Besides, in [2] (primary RGCs in culture), the “toxicity in RGC culture” value is given as “cytotoxicity at high concentrations”. Also, the “reduction of optic nerve axon loss” value in series [4] was 40%.
Regarding `Cc1cc(Nc2cc(N3CCN(C)CC3)nc(Sc3ccc(NC(=O)C4CC4)cc3)n2)[nH]n1` [tozasertib], the “surviving RGCs” value in series [3] (intravitreal PLGA microspheres 7 days before transection, two weeks after transection, vehicle 12.0%) amounted to 32.3%. In [3] (intravitreal slow release formulation), the “protection of RGCs in optic nerve transection model” value was “protected RGCs”. Further, the “binding to DLK” value in [1] was “reported to bind DLK”. Further, the “phosphorylation of targets downstream of DLK, including MKK7 and JNK” value in [5] is “decrease in the phosphorylation of targets downstream of DLK”. Further, in series [6], the “effect on toxicity / survival with adenoviral-overexpressed DLK” value is given as “right-shift of the tozasertib-survival dose-response curve”. The “affinity for MKK4/7” value in series [7] is listed as “does not have significant affinity”. The “RGC survival / neuroprotective activity in culture” value is listed as “promoted the survival of primary RGCs in culture” in series [2] and “significant neuroprotective activity” in series [2] (listed as Tozasertib). Also, the “neuroprotection in glaucoma model” value in series [4] (intravitreal PLGA microspheres / slow release formulation) is recorded as “protected RGCs”. The “reduction of optic nerve axon loss” value in series [4] is recorded as 39%. In addition, the “affinity for JNK” value in series [8] is on record as “does not have significant affinity”. In [9], the “effect on survival of DLK siRNA-transfected RGCs” value is listed as “left-shift of the tozasertib-survival dose-response curve”.
On to `Clc1ccc(Nc2nnc(Cc3ccncc3)c3ccccc23)cc1` [vatalanib], for which the “RGC survival / neuroprotective activity in culture” value in series [2] is “lack neuroprotective activity”.
